Marks after values point to notes of the source that are not given here. One block for each compound: values may come before it.
Legend:
[1] = system: SKM1 human cancer cell xenograft; assay: Xenograft efficacy study, SKM1; type: in vivo, mouse
[2] = system: rat collagen induced arthritis (rCIA) paw swelling; conditions: rCIA, dosed at 3 mg/kg (positive control) once daily day 10-17
[3] = molecular target: human BRD4 first bromodomain (BDI_K57-E168) (Homo sapiens (Human), UniProt O60885); assay: TR-FRET bromodomain binding assay, BRD4 first bromodomain
[4] = molecular target: human BRD4 second bromodomain (BDII_E352-M457) (Homo sapiens (Human), UniProt O60885); assay: TR-FRET bromodomain binding assay, BRD4 second bromodomain
[5] = system: breast cancer cell line MX-1; assay: MX-1 cell line proliferation assay; type: cell-based, human; conditions: Homo sapiens, MX1, 72 h; MX-1 cells, 3-day proliferation, Cell Titer Glo; read-out: Cellular proliferation: EC50
[6] = Human liver microsome stability assay; type: in vitro ADME; conditions: both sexes, human, microsomes, pH 7.4
[7] = Rat liver microsome stability assay; type: in vitro ADME; conditions: rat liver microsomes (male Sprague-Dawley), 0.5 μM test compound, 0.25 mg/mL microsomal protein, pH 7.4, 37° C.; read-out: Stability in rat liver microsomes (t1/2 in minutes)
[8] = Mouse liver microsome stability assay; type: in vitro ADME; conditions: male, CD1, mouse, microsomes, pH 7.4
[9] = system: LPS induced IL-6 production; assay: LPS (lipopolysaccharide) induced IL-6 production mouse assay; type: in vivo; conditions: Mus musculus, read-out: Inhibition of LPS induced IL-6 production in Mice, % inhibition at 3 mg/kg; 3 mg/kg oral, 1 h before LPS; serum IL-6 2 h after LPS
[10] = system: MX-1 human breast cancer xenograft tumors; assay: Xenograft tumor growth inhibition assay, MX-1; type: in vivo, mouse; conditions: MX-1, PO, vehicle F
[11] = system: OPM-2 human multiple myeloma xenograft tumors; assay: animal or person; conditions: Mus musculus, OPM-2, po, PO, vehicle A
[12] = system: MV4-11 human cancer cell xenograft; assay: Xenograft efficacy study, MV4-11; type: in vivo, mouse; conditions: 250 mg/kg/day, IP, BID Q7Dx3, vehicle C
[13] = 6 mg/kg/day, IV, Q7Dx3, vehicle C
[14] = 3 mg/kg/day, QD (5 on, 3 off, 5 on)
[15] = 250 mg/kg/day, IP, BID Q7Dx3, vehicle C

% removed from study [1, 13]: 0%
SMILES: Nc1ncn([C@@H]2O[C@H](CO)[C@@H](O)[C@H]2O)c(=O)n1 [azacitidine]
% TGD (tumor growth delay) [1, 13]: 98* % | % TGI (tumor growth inhibition) [1, 13]: 54** %

SMILES: C[C@]12C=CC(=O)C=C1CC[C@@H]1[C@@H]2[C@@H](O)C[C@@]2(C)[C@H]1CC[C@]2(O)C(=O)CO [Prednisolone, prednisolone, reference compound]
AUC of Paw Swelling, MEAN [2]: 0.67** ml-day

Ki [3]: 2.5 nM | Ki [4]: 2.2 nM | EC50 [5]: 31.7 nM | half-life at 0.5 μM [6]: 32 min | half-life at 0.5 μM [7]: > 120 min | half-life at 0.5 μM [8]: 59 min
SMILES: Cn1cc(-c2cc(NS(C)(=O)=O)ccc2Oc2ccc(F)cc2F)c2cc[nH]c2c1=O [Example 27, N-[4-(2,4-difluorophenoxy)-3-(6-methyl-7-oxo-6,7-dihydro-1H-pyrrolo[2,3-c]pyridin-4-yl)phenyl]methanesulfonamide]
inhibition in vivo at 3 mg/kg [9]: 89% | % TGD (tumor growth delay) ([10]; 0.3 mg/kg/day, QD): 35% | % TGI (tumor growth inhibition) ([10]; 0.3 mg/kg/day, QD): 38** % | % removed from study ([10]; 0.3 mg/kg/day, QD): 0% | % TGD (tumor growth delay) ([10]; 1 mg/kg/day, QD): 13% | % TGI (tumor growth inhibition) ([10]; 1 mg/kg/day, QD): 57*** % | % removed from study ([10]; 1 mg/kg/day, QD): 0% | % TGI (tumor growth inhibition) [10, 14]: 69*** % | % removed from study [10, 14]: 0% | change in vivo at 1 mg/kg ([11]; read-out: % TGD (tumor growth delay), OPM-2, 1 mg/kg/day, QDx14): -2% | change in vivo at 3 mg/kg ([11]; read-out: % TGD (tumor growth delay), OPM-2, 3 mg/kg/day, QD (5 on, 3 off, 5 on)): 7% | inhibition in vivo at 1 mg/kg ([11]; read-out: % TGI (tumor growth inhibition), OPM-2, 1 mg/kg/day, QDx14): 59% | inhibition in vivo at 3 mg/kg ([11]; read-out: % TGI (tumor growth inhibition), OPM-2, 3 mg/kg/day, QD (5 on, 3 off, 5 on)): 67%

% removed from study [12]: 0% | % removed from study [1, 15]: 0%
SMILES: Nc1ccn([C@@H]2O[C@H](CO)[C@@H](O)[C@@H]2O)c(=O)n1 [cytarabine]
% TGD (tumor growth delay) [12]: 37*** % | % TGI (tumor growth inhibition) [12]: 47*** % | % TGD (tumor growth delay) [1, 15]: 30% | % TGI (tumor growth inhibition) [1, 15]: 20%

Source: patent publication US9296741B2, “Bromodomain inhibitors” (priority 2012, dated 2016)
